Values joined by “and” are separate entries in the source; they are usually repeats but may differ in a detail not shown here. Equal values may be shown once.
What was measured:
[1] = target: T1, D(3) dopamine receptor (Homo sapiens, UniProt P35462); assay: Tested for in vitro binding affinity against cloned mammalian dopamine autoreceptor (DA) receptors expressed in CHO-K1 cells [3H]-spiperone as radioligand; format: cell-based
[2] = test system: Rattus norvegicus; assay: Evaluated for biochemical levels of DOPAC in nonpretreated habituated rats for subcuteneous dose of 100 micro mol/kg in rat striatum; format: functional
[3] = test system: Rattus norvegicus; assay: Evaluated for locomotor activity in nonpretreated habituated rats at 100 umol/kg of subcuteneous dose; format: functional; parameters: unit not given here
[4] = target: T2, D(2) dopamine receptor (Homo sapiens, UniProt P14416); assay: biochemical
Description: (§1) Affinity against recombinant dopamine receptor (DA) D2 expressed in CHO-K1 cells, using [3H]-spiperone as radioligand

[5] = test system: Rattus norvegicus; assay: Compound is evaluated for accumulation of DOPA in nonhabituated rats at 100 umol/kg of subcuteneous dose in rat striatum; format: functional
[6] = target: Dopamine receptor; assay: Tested for in vitro binding affinity against cloned mammalian dopamine autoreceptor (DA) receptors expressed in CHO-K1 cells using [3H]U-86170 as radioligand; format: cell-based
[7] = test system: Rattus norvegicus; assay: Effect 60 min after administration of 200 (umol/kg) subcuteneous dose on DA release in rat brain dialysis model; format: functional
[8] = test system: Rattus norvegicus; assay: Compound is evaluated for locomotor activity in nonhabituated rats at 100 umol/kg of subcuteneous dose; format: functional
[9] = target: T3, D(2) dopamine receptor (Rattus norvegicus, UniProt P61169); assay: Tested for affinity against striatal dopamine autoreceptor (DA) D2 receptors using [3H]spiperone as radioligand in rats.
[10] = test system: Rattus norvegicus; assay: Compound is evaluated biochemically in reserpine-pretreated habituated rats for (50 micro mol/kg) subcuteneous dose in 5-HTP; format: functional
[11] = test system: Rattus norvegicus; assay: Evaluated for locomotor activity in nonpretreated habituated rats in 100 umol/kg of subcuteneous dose; format: functional; parameters: unit not given here
[12] = test system: Rattus norvegicus; assay: Compound is evaluated for DOPA accumulation in reserpine-pretreated habituated rats at 100 micro mol/kg of subcuteneous dose in rat striatum; format: functional
[13] = test system: Rattus norvegicus; assay: Evaluated biochemically in nonpretreated habituated rats for (100 uM/kg) subcuteneous dose, Value expressed as locomotor activity (LMA); format: functional
[14] = test system: Rattus norvegicus; assay: Compound is evaluated biochemically in nonhabituated rats for (100 umol/kg) subcuteneous dose, Value expressed as locomotor activity (LMA); format: functional
[15] = target: T2, D(2) dopamine receptor; assay: biochemical; remark: listed apart in the source
Description: In vitro binding affinity against cloned mammalian dopamine D2 autoreceptor, expressed in CHO-K1 cells, using [3H]U-86170 as radioligand

[16] = target: T3, D(2) dopamine receptor
Description: Affinity against striatal dopamine D2 receptors using [3H]spiperone as radioligand in rats.

[17] = target: D(3) dopamine receptor (Rattus norvegicus, UniProt P19020); assay: Tested for in vitro binding affinity against cloned mammalian dopamine autoreceptor, expressed in CHO-K1 cells, using [3H]spiperone as radioligand; format: cell-based
[18] = test system: Rattus norvegicus; assay: Evaluated for DOPAC level in nonpretreated habituated rats after subcuteneous dose of 100 micro mol/kg in rat striatum; format: functional
[19] = test system: Rattus norvegicus; assay: Evaluated biochemically in reserpine-pretreated habituated rats for (100 umol/kg) subcuteneous dose, Value expressed as locomotor activity (LMA); format: functional
[20] = test system: Rattus norvegicus; assay: Evaluated biochemically in reserpine-pretreated habituated rats for (100 umol/kg) subcuteneous dose in rat striatum (DOPAacc), Value expressed as counts/30 min; format: functional
[21] = test system: Rattus norvegicus; assay: Evaluated for DOPA accumulation (DOPAacc) level in nonhabituated rats after subcuteneous dose (100 uM/kg) in rat striatum; format: functional
[22] = organism: Rattus norvegicus; assay: Compound was tested in vio for concomitant ability to antagonize the locomotor activity of rat induced by Di-Pr-5,6-ADTN, Value expressed as locomotor activity (LMA), % of control; format: functional; parameters: scale not given: the % may be the effect or the level left
[23] = test system: Rattus norvegicus; assay: Tested in vivo for its ability to displace DA receptor agonist (Di-Pr-5,6-ADTN) from rat striatal binding sites at 0.25 uM/Kg sc. dose (after subtraction of cerebellum levels); format: functional
[24] = target: T1, D(3) dopamine receptor; assay: Tested for in vitro binding affinity against cloned mammalian dopamine D3 receptor, expressed in CHO-K1 cells, using [3H]spiperone as radioligand; format: cell-based
[25] = test system: Rattus norvegicus; assay: Evaluated biochemically in nonhabituated rats for (100 umol/kg) subcuteneous dose, Value expressed as locomotor activity (LMA); format: functional
[26] = test system: Rattus norvegicus; assay: Effect of (60 min after administration of 200 (uM/kg) subcuteneous dose on DA release in brain dialysis model of rat striatum; Values expressed as percent of saline controls; format: functional
[27] = test system: Rattus norvegicus; assay: Compound is evaluated for DOPAC accumulation in nonpretreated habituated rats after subcuteneous dose of 100 micro mol/kg in rat striatum; format: functional
[28] = test system: Rattus norvegicus; assay: Compound was tested in vivo for its ability to displace DA receptor agonist (Di-Pr-5,6-ADTN) from rat striatal binding sites at 0.25 uM/Kg sc. dose; format: functional
[29] = organism: Rattus norvegicus; assay: Compound was tested in vio for concomitant ability to antagonize the locomotor activity of rat induced by Di-Pr-5,6-ADTN; format: functional
[30] = test system: Rattus norvegicus; assay: Compound is evaluated for locomotor activity in nonpretreated habituated rats in 50 umol/kg of subcuteneous dose; format: functional
[31] = test system: Rattus norvegicus; assay: Compound is evaluated for DOPA accumulation in reserpine-pretreated habituated rats at 50 umol/kg of subcuteneous dose in rat striatum; format: functional
[32] = target: T2, D(2) dopamine receptor; details: cho-k1
Description: as §1

[33] = test system: Rattus norvegicus; assay: Compound is evaluated for locomotor activity in nonhabituated rats at 3.2 umol/kg of subcuteneous dose; format: functional
[34] = test system: Rattus norvegicus; assay: Compound is evaluated for locomotor activity in nonpretreated habituated rats in 25 umol/kg of subcuteneous dose; format: functional
[35] = test system: Rattus norvegicus; assay: Compound is evaluated for locomotor activity in reserpine-pretreated habituated rats at 3.2 umol/kg) of subcuteneous dose; format: functional
[36] = test system: Rattus norvegicus; assay: Compound is evaluated biochemically in nonhabituated rats for (0.64 micro mol/kg) subcuteneous dose in rat striatum (DOPAacc); format: functional
[37] = test system: Rattus norvegicus; assay: Compound is evaluated for DOPA accumulation in reserpine-pretreated habituated rats fat 3.2 micro mol/kg of subcuteneous dose in rat striatum; format: functional
[38] = test system: Rattus norvegicus; assay: Effect (60 min after administration of 200 (1.6 micro mol/kg) subcuteneous dose on DA release in brain dialysis model of rat; format: functional
[39] = organism: Rattus norvegicus; assay: Compound is tested for concomitant ability to antagonize the locomotor activity induced by Di-Pr-5,6-ADTN; format: functional
[40] = test system: Rattus norvegicus; assay: Compound is evaluated for locomotor activity in nonpretreated habituated rats at 1.6 micro mol/kg of subcuteneous dose; format: functional
[41] = test system: Rattus norvegicus; assay: Compound is tested for its ability to displace Di-Pr-5,6-ADTN at […] subcutaneous dose from rat striatal binding sites in vivo; format: functional
[42] = test system: Rattus norvegicus; assay: Compound is evaluated for locomotor activity in nonhabituated rats at 1.3 micro mol/kg of subcuteneous dose; format: functional
[43] = test system: Rattus norvegicus; assay: Compound is evaluated DOPA accumulation in nonhabituated rats for (1.3 micro mol/kg) subcuteneous dose in rat striatum; format: functional
[44] = test system: Rattus norvegicus; assay: Effect (60 min after administration of 200 (5.3 umol/kg) subcuteneous dose on DA release in brain dialysis model of rat; format: functional

T1 sequence (P35462 whole entry): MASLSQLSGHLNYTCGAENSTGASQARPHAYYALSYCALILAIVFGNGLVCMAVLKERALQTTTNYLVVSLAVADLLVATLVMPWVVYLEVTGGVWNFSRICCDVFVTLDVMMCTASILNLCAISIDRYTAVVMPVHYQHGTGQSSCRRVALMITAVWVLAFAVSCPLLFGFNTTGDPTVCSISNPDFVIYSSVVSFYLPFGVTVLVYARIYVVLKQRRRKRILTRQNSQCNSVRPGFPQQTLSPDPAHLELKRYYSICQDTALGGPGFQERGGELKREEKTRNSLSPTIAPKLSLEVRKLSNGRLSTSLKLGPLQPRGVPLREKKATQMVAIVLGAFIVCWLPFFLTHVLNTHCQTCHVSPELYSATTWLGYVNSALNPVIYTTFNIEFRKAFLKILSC
T3 sequence (P61169 whole entry): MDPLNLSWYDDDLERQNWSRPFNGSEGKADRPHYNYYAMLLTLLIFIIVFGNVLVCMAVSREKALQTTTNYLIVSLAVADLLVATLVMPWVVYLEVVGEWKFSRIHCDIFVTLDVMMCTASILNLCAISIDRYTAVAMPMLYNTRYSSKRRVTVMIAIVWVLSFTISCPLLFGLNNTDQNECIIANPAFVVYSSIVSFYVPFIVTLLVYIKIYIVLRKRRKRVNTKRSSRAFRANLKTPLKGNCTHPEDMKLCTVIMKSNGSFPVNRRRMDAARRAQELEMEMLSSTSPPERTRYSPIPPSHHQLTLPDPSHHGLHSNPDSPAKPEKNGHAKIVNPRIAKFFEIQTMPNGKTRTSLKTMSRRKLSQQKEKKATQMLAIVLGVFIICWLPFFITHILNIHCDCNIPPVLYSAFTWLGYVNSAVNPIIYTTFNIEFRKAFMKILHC
T2 sequence (P14416 whole entry): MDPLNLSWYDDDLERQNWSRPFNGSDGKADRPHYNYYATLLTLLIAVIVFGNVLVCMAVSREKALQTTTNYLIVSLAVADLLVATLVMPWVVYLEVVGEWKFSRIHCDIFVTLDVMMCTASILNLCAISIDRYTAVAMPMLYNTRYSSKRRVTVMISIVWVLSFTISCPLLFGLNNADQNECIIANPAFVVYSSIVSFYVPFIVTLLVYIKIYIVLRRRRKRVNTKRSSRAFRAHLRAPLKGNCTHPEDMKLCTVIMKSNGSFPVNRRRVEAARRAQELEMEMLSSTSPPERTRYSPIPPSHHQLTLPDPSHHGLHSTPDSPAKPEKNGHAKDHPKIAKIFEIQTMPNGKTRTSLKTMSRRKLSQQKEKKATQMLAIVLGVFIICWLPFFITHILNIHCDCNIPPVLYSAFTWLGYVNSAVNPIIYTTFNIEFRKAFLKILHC
Sequence of D(3) dopamine receptor (Rattus norvegicus, UniProt P19020) (P19020 whole entry): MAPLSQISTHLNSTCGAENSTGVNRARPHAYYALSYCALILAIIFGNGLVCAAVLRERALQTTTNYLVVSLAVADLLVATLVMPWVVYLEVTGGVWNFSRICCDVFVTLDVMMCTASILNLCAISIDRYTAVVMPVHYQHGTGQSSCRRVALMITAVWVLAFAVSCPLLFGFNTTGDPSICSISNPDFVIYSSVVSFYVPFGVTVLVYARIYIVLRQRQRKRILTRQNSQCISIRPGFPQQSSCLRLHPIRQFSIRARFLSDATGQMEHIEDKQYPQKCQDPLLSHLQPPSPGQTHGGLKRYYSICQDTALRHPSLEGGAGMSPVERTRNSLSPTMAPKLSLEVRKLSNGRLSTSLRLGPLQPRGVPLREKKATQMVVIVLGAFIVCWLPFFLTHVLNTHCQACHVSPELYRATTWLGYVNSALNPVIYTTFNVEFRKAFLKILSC

Structure (SMILES) | Ki [1] [nM] | Activity [2] [%] | Ki [4] [nM] | Ki [6] [nM] | Ki [9] [nM] | LMA [11] | Control [13] [%] | Ki [16] [nM] | Control [19] [%] | Activity [20] [%] | Activity [21] [%] | other results
C#Cc1cccc([C@@H]2CCCN(CCC)C2)c1 | 339 | 138 | > 217 | 334 | 709 | – | – | – | – | – | – | LMA [3]: 671; Activity [5]: 136%; Activity [7]: 265%; LMA [8]: 237
C=CCN1CCC2c3cccc(OS(=O)(=O)C(F)(F)F)c3CCC21 (stereo unspecified) | 67 | 175 | > 217 | 125 | > 172 | 443 and 635 | – | – | – | – | – | Activity [10]: 52%; Activity [12]: 92%
CCCN1CCC[C@@H](c2cccc(OC)c2)C1 | – | – | > 217 | – | – | – | 463 | 3440 | 23 | 66 | 131 | Control [14]: 160%; Ki [15]: 602 nM; Ki [17]: 1330 nM; Activity [18]: 149%
CCCN1CCC[C@@H](c2cccc(OS(C)(=O)=O)c2)C1 | – | – | > 217 | – | – | – | 576 | 4170 | 18 | 74 | 249 | Control [22]: 46%; Ki [15]: 192 nM; Control [23]: 55%; Ki [24]: 978 nM; Locomotor activity (% of control) [25]: 154%; Activity [26]: 234%
CCCN1CCC[C@@H](c2cccc(N)c2)C1 | – | – | > 217 | – | – | – | 113 | 2000 | 72 | 91 | – | Activity [27]: 128%
CCN1CCCC1CNC(=O)c1c(OC)ccc(Br)c1OC (single isomer, unassigned) [REMOXIPRIDE] | – | – | – | – | – | – | – | – | 5 | 104 | 411 | Control [28]: 48%; Activity [18]: 313%; LMA [29]: 91%; Locomotor activity (% of control) [25]: 60%
CCCN1CCCC2c3cccc(OS(=O)(=O)C(F)(F)F)c3CCC21 (stereo in doubt; 46) | 22 | 263 | > 217 | 21 | 64 | 200 | – | – | – | – | – | LMA [30]: 211; Activity [31]: 85%; Activity [12]: 62%
C=CCN1CC[C@@H]2c3cccc(OS(=O)(=O)C(F)(F)F)c3CC[C@@H]21 (stereo in doubt; 50) | > 500 | 98 | – | > 1900 | > 172 | 148 | – | – | – | – | – | Ki [32]: > 217 nM
CN1CCc2cccc3c2[C@H]1Cc1ccc(O)c(O)c1-3 [APOMORPHINE] | – | 65 | – | – | – | – | – | – | – | – | – | LMA [33]: 277; LMA [34]: 491; LMA [35]: 366; Activity [36]: 53%; Activity [37]: 20%; Activity [38]: 37%
O=C(CCCN1CCC(O)(c2ccc(Cl)cc2)CC1)c1ccc(F)cc1 [HALOPERIDOL] | – | 404 | – | – | – | – | – | – | – | – | – | LMA [39]: 7%; LMA [40]: 61; Activity [41]: 82%; LMA [42]: 2; Activity [43]: 356%; Activity [44]: 211%
